Laboratory results taken from article PMC12440824, “Chimeric deubiquitinase engineering reveals structural basis for specific inhibition of the mitophagy regulator USP30” (Nature Structural & Molecular Biology, 2025).
Values joined by “and” are separate entries in the source; they are usually repeats but may differ in a detail not shown here. Equal values may be shown once.

Legend:
recombinant USP30 = conditions: read-out: Ub–Rho IC50 against recombinant USP30; cited from earlier work
USP30 = test system: USP30; set-up: method as in PMID 37385347; conditions: ‘pseudo-covalent’ binding mode proposed; cited from earlier work
USP30^ch3 A162S [1] = molecular target: T1, USP30^ch3 A162S (Homo sapiens, UniProt Q70CQ3, A162S, form not given); test: Ub–RhoG cleavage enzyme inhibition assay, chimera 3 A162S; assay type: biochemical; conditions: mean n=3
Procedure: (§1) Enzyme kinetics were performed in black, low-volume, non-binding-surface 384-well plates. […] Next, 10 µl of 2× enzyme solution was added in triplicate to the plate. The reaction was started by adding 10 µl of 2× substrate solution. […] Inhibitor solution (4×) was added to 4× enzyme solution to create a 2× enzyme–inhibitor mixture. Next, 10 µl of this 2× enzyme–inhibitor mixture was then added to the plate in triplicate, and the plate was incubated at room temperature for 90 min. The reaction was started by adding 10 µl of 2× Ub–RhoG substrate. […] Data were analyzed with GraphPad Prism.

USP30^ch3 I154A = USP30^ch3 I154A (Homo sapiens, UniProt Q70CQ3, I154A, form not given); test: Ub–RhoG cleavage enzyme inhibition assay, chimera 3 I154A; assay type: biochemical; conditions: mean n=3
Procedure: as §1

USP30 c2 = test: Thermal shift assay, USP30 c2; assay type: binding, human; conditions: 20 μM inhibitor
Procedure: (§2) The thermal stability of USP30 constructs and effects of either inhibitor or Ub-PA binding were determined by thermal shift assays. Inhibitor, Ub-PA and SYPRO orange dye (Sigma, 5,000× stock in DMSO) solutions were prepared in 1× PBS, 4 mM DTT. Inhibitor/Ub-PA was prediluted to 100 µM, and SYPRO orange dye was prediluted to 50× (from the commercial stock). Mixtures of protein, inhibitor/Ub-PA and SYPRO were prepared with inhibitor/Ub-PA at a final concentration of 20 μM, SYPRO at a final concentration of 4× and protein at a final concentration of 2 μM for c1, 4 μM for ch1, ch4 and c2 and 3 μM for ch2 and ch3. Samples were added in triplicate to a white 96-well PCR plate (Bio-Rad). Fluorescence intensity was monitored (excitation, 450–490 nm; emission, 560–580 nm) at a gradient of 20–90 °C (increment of 0.3 °C, hold for 5 s before read) on a real-time PCR system (Bio-Rad).

USP30^ch3 F453Y = USP30^ch3 F453Y (Homo sapiens, UniProt Q70CQ3, F453Y, form not given); test: Ub–RhoG cleavage enzyme inhibition assay, chimera 3 F453Y; assay type: biochemical; set-up: USP30ch3 F453Y activity / USP30ch3 F453Y activity (ED Fig. 7e series): scale not given here; conditions: for USP30ch3 F453Y activity (ED Fig. 7e series) / USP30ch3 F453Y activity: mean n=3; for USP30ch3 F453Y activity: Fig. 4e,g
Procedure: as §1

USP30^ch3 = USP30^ch3 (Homo sapiens, UniProt Q70CQ3); test: Ub–RhoG cleavage enzyme inhibition assay, chimera 3 (WT); assay type: biochemical; conditions: mean n=3
Procedure: as §1

USP30^ch4 = test: Thermal shift assay, USP30 ch4; assay type: binding, human; conditions: 20 μM inhibitor; for ΔTm, USP30^ch4: replicates or average
Procedure: as §2

USP30^ch3 A162S [2] = molecular target: T1, USP30^ch3 A162S; test: Thermal shift assay, USP30 ch3 A162S; assay type: binding; conditions: 20 μM inhibitor
Procedure: as §2

USP30^c1 = molecular target: T2, USP30^c1 (Homo sapiens, UniProt Q70CQ3, DEL179-208/DEL211-214/DEL358-428/F348D/I353E/M350S/N216S/S215G); test: Ub–RhoG cleavage enzyme inhibition assay, USP30 construct 1; assay type: biochemical; conditions: for USP30c1 activity: mean n=3
T2 sequence (Q70CQ3 with tags, fused parts or gaps DEL179-208/DEL211-214/S215G/N216S/F348D/M350S/I353E/DEL358-428): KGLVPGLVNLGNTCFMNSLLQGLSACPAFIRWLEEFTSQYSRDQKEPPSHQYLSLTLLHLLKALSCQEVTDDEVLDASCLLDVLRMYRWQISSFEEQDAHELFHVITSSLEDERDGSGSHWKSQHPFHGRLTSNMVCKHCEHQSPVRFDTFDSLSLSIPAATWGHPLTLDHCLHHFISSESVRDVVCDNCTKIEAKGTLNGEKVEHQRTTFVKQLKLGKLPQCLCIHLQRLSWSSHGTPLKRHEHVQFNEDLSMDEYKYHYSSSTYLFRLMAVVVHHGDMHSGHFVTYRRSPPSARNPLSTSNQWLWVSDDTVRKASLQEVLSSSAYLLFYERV
Procedure: as §1

Chain of USP30^ch3 I154A (Q70CQ3 64-502 I154A, form open): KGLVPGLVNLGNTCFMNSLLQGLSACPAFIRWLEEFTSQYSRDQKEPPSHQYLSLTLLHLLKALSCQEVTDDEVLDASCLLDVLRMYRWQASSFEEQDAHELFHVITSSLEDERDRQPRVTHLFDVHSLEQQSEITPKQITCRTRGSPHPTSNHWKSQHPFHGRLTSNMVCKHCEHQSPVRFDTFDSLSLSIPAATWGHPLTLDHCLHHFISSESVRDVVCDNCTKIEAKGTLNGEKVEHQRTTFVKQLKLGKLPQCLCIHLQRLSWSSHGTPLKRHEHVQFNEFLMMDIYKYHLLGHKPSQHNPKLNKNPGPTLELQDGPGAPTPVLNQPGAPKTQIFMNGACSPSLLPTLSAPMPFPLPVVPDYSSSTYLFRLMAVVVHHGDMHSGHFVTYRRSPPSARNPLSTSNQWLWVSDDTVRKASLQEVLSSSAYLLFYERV
Chain of USP30^ch3 I154A (P54578 248-318 partner, form open): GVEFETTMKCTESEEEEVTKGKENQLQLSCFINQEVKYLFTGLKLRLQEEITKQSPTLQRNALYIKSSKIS
Chain of USP30^ch3 I154A (Q9P2H5 821-846 partner, form open): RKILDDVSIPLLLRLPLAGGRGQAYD
Chain of USP30^ch3 (Q70CQ3 64-502): as the sequence (Q70CQ3 64-502 I154A, form open) above, with A91I counted along it
Chain of USP30^ch3 (P54578 248-318 partner): as the sequence (P54578 248-318 partner, form open) above
Chain of USP30^ch3 F453Y (Q70CQ3 64-502 F453Y, form open): as the sequence (Q70CQ3 64-502 I154A, form open) above, with A91I, F390Y counted along it
Chain of USP30^ch3 F453Y (P54578 248-318 partner, form open): as the sequence (P54578 248-318 partner, form open) above
T1 sequence (Q70CQ3 64-502 A162S, form open): as the sequence (Q70CQ3 64-502 I154A, form open) above, with A91I, A99S counted along it
T1 sequence (P54578 248-318 partner, form open): as the sequence (P54578 248-318 partner, form open) above

## CC(C)(C)NS(=O)(=O)c1ccc(NC(=O)[C@H](Cc2ccccc2)NC(=O)c2ccc(F)cc2)cc1 [compound 39]
Recombinant USP30
  IC50: 2 to 20 nM
USP30
  off-rate: exceptionally slow off-rate
USP30^ch3 A162S [1]; inhibitor 0.001563 nM
  USP30ch3 A162S activity: 0.9737
USP30^ch3 A162S [1]; inhibitor 0.00625 nM
  USP30ch3 A162S activity: 1.01
USP30^ch3 A162S [1]; inhibitor 0.025 nM
  USP30ch3 A162S activity: 0.9776
USP30^ch3 A162S [1]; inhibitor 0.1 nM
  USP30ch3 A162S activity: 0.9451
USP30^ch3 A162S [1]; inhibitor 0.39 nM
  USP30ch3 A162S activity: 0.896
USP30^ch3 A162S [1]; inhibitor 1.56 nM
  USP30ch3 A162S activity: 0.93
USP30^ch3 A162S [1]; inhibitor 6.25 nM
  USP30ch3 A162S activity: 0.7972
USP30^ch3 A162S [1]; inhibitor 25 nM
  USP30ch3 A162S activity: 0.6308
USP30^ch3 A162S [1]; inhibitor 100 nM
  USP30ch3 A162S activity: 0.4027
USP30^ch3 A162S [1]; inhibitor 400 nM
  USP30ch3 A162S activity: 0.2411
USP30^ch3 A162S [1]; inhibitor 1600 nM
  USP30ch3 A162S activity: 0.2091
USP30^ch3 I154A; inhibitor 0.001563 nM
  USP30ch3 I154A activity: 1.024
USP30^ch3 I154A; inhibitor 0.00625 nM
  USP30ch3 I154A activity: 1.056
USP30^ch3 I154A; inhibitor 0.025 nM
  USP30ch3 I154A activity: 0.9999
USP30^ch3 I154A; inhibitor 0.1 nM
  USP30ch3 I154A activity: 1.007
USP30^ch3 I154A; inhibitor 0.39 nM
  USP30ch3 I154A activity: 0.9637
USP30^ch3 I154A; inhibitor 1.56 nM
  USP30ch3 I154A activity: 0.9166
USP30^ch3 I154A; inhibitor 6.25 nM
  USP30ch3 I154A activity: 0.8225
USP30^ch3 I154A; inhibitor 25 nM
  USP30ch3 I154A activity: 0.6606
USP30^ch3 I154A; inhibitor 100 nM
  USP30ch3 I154A activity: 0.4173
USP30^ch3 I154A; inhibitor 400 nM
  USP30ch3 I154A activity: 0.274
USP30^ch3 I154A; inhibitor 1600 nM
  USP30ch3 I154A activity: 0.2192
USP30 c2
  Tm in presence of compound, USP30 c2: 58.5 °C
USP30 c2; replicates or average
  ΔTm, USP30 c2: 7.8 °C
USP30^ch3 F453Y; USP30^ch3 F453Y vs WT
  reduction of inhibition potency by F453Y substitution (specificity window vs WT): three orders of magnitude
USP30^ch3 F453Y; inhibitor 0.001563 nM
  USP30ch3 F453Y activity (ED Fig. 7e series): 1.055
  USP30ch3 F453Y activity: 0.9971
USP30^ch3 F453Y; inhibitor 0.00625 nM
  USP30ch3 F453Y activity (ED Fig. 7e series): 1.076
  USP30ch3 F453Y activity: 1.054
USP30^ch3 F453Y; inhibitor 0.025 nM
  USP30ch3 F453Y activity (ED Fig. 7e series): 1.018
  USP30ch3 F453Y activity: 1.004
USP30^ch3 F453Y; inhibitor 0.1 nM
  USP30ch3 F453Y activity (ED Fig. 7e series): 0.9989
  USP30ch3 F453Y activity: 0.9561
USP30^ch3 F453Y; inhibitor 0.39 nM
  USP30ch3 F453Y activity (ED Fig. 7e series): 0.8995
  USP30ch3 F453Y activity: 0.9204
USP30^ch3 F453Y; inhibitor 1.56 nM
  USP30ch3 F453Y activity (ED Fig. 7e series): 0.9776
  USP30ch3 F453Y activity: 0.9185
USP30^ch3 F453Y; inhibitor 6.25 nM
  USP30ch3 F453Y activity (ED Fig. 7e series): 0.9466
  USP30ch3 F453Y activity: 0.9079
USP30^ch3 F453Y; inhibitor 25 nM
  USP30ch3 F453Y activity (ED Fig. 7e series): 0.9111
  USP30ch3 F453Y activity: 0.8377
USP30^ch3 F453Y; inhibitor 100 nM
  USP30ch3 F453Y activity (ED Fig. 7e series): 0.8886
  USP30ch3 F453Y activity: 0.7744
USP30^ch3 F453Y; inhibitor 400 nM
  USP30ch3 F453Y activity (ED Fig. 7e series): 0.7448
  USP30ch3 F453Y activity: 0.5461
USP30^ch3 F453Y; inhibitor 1600 nM
  USP30ch3 F453Y activity (ED Fig. 7e series): 0.7279
  USP30ch3 F453Y activity: 0.3171
USP30^ch3; inhibitor 0.001563 nM
  USP30ch3 WT activity (Fig. 5d / ED Fig. 7e series): 0.9251
USP30^ch3; inhibitor 0.00625 nM
  USP30ch3 WT activity (Fig. 5d / ED Fig. 7e series): 0.867
  USP30ch3 activity: 0.8546
USP30^ch3; inhibitor 0.025 nM
  USP30ch3 WT activity (Fig. 5d / ED Fig. 7e series): 0.8429
  USP30ch3 activity: 0.7063
USP30^ch3; inhibitor 0.1 nM
  USP30ch3 WT activity (Fig. 5d / ED Fig. 7e series): 0.705
  USP30ch3 activity: 0.6531
USP30^ch3; inhibitor 0.39 nM
  USP30ch3 WT activity (Fig. 5d / ED Fig. 7e series): 0.5733
  USP30ch3 activity: 0.4658
USP30^ch3; inhibitor 1.56 nM
  USP30ch3 WT activity (Fig. 5d / ED Fig. 7e series): 0.4495
  USP30ch3 activity: 0.3269
USP30^ch3; inhibitor 6.25 nM
  USP30ch3 WT activity (Fig. 5d / ED Fig. 7e series): 0.2804
  USP30ch3 activity: 0.1958
USP30^ch3; inhibitor 25 nM
  USP30ch3 WT activity (Fig. 5d / ED Fig. 7e series): 0.1378
  USP30ch3 activity: 0.09897
USP30^ch3; inhibitor 100 nM
  USP30ch3 WT activity (Fig. 5d / ED Fig. 7e series): 0.05989
  USP30ch3 activity: 0.03567
USP30^ch3; inhibitor 400 nM
  USP30ch3 WT activity (Fig. 5d / ED Fig. 7e series): 0.03092
  USP30ch3 activity: 0.008529
USP30^ch3; inhibitor 1600 nM
  USP30ch3 WT activity (Fig. 5d / ED Fig. 7e series): 0.02661
  USP30ch3 activity: -0.001344
USP30^ch3; inhibitor 0.0015625 (0.001563) nM
  USP30ch3 activity: 0.9081
USP30^ch4
  Tm in presence of compound, USP30^ch4: 60.3 °C
USP30^ch4; 20 µM
  ΔTm, USP30^ch4: 8.8 °C
USP30^ch4; listed as NK017, 20 µM
  ΔTm, USP30^ch4: 9.0 °C and 8.7 °C (2×)
USP30^ch3 A162S [2]
  Tm in presence of compound, USP30^ch3 A162S: 60.0 °C
USP30^c1; Ub–RhoG cleavage, 1.5 h pre-incubation, mean ± s.e.m. from curve fitting
  IC50: 0.8 nM and 0.834 nM
USP30^c1; inhibitor 0.0015625 nM
  USP30c1 activity: 0.9588
USP30^c1; inhibitor 0.00625 nM
  USP30c1 activity: 0.9404
USP30^c1; inhibitor 0.025 nM
  USP30c1 activity: 0.8662
USP30^c1; inhibitor 0.1 nM
  USP30c1 activity: 0.7469
USP30^c1; inhibitor 0.39 nM
  USP30c1 activity: 0.5918
USP30^c1; inhibitor 1.56 nM
  USP30c1 activity: 0.4353
USP30^c1; inhibitor 6.25 nM
  USP30c1 activity: 0.2635
USP30^c1; inhibitor 25 nM
  USP30c1 activity: 0.1267
USP30^c1; inhibitor 100 nM
  USP30c1 activity: 0.06264
USP30^c1; inhibitor 400 nM
  USP30c1 activity: 0.02701
USP30^c1; inhibitor 1600 nM
  USP30c1 activity: 0.01055
